Data published in ChEMBL document CHEMBL5321246, “Aurones: A Promising Scaffold to Inhibit SARS-CoV-2 Replication” (J Nat Prod, 2023).

Key:
[1] = test system: SARS-CoV-2; assay: Antiviral activity against SARS-CoV-2 B.1 lineage isolate infected in human Calu-3 cells assessed as inhibition of viral replication at 10 uM infected with cells for 1 hr followed by compound addition and measured 24 hrs post infection by crystal violet staining based PFU assay relative to control; type: functional; settings: Severe acute respiratory syndrome coronavirus 2, B.1, Calu-3
[2] = Cytotoxicity against human Calu-3 cells assessed as reduction in cell viability incubated for 72 hrs by methylene blue assay; type: toxicity, cell-based
[3] = test system: SARS-CoV-2; assay: Antiviral activity against SARS-CoV-2 B.1 lineage isolate infected in human Calu-3 cells assessed as inhibition of viral replication infected with cells for 1 hr followed by compound addition and measured 24 hrs post infection by crystal violet staining based PFU assay; type: functional, organism-based; settings: Severe acute respiratory syndrome coronavirus 2, B.1, Calu-3
[4] = Cytotoxicity against human Calu-3 cells assessed as cell viability at 250 uM incubated for 72 hrs by methylene blue assay relative to control; type: toxicity, cell-based; settings: read-out: Activity
[5] = Selectivity index, ratio of CC50 for cytotoxicity against human Calu-3 cells to EC50 for antiviral activity against SARS-CoV-2 B.1 lineage isolate infected in human Calu-3 cells; type: toxicity, cell-based; settings: read-out: Ratio CC50/EC50
[6] = test system: SARS-CoV-2; assay: Antiviral activity against SARS-CoV-2 B.1 lineage isolate infected in human Calu-3 cells assessed as inhibition of viral replication at 1 uM infected with cells for 1 hr followed by compound addition and measured 24 hrs post infection by crystal violet staining based PFU assay relative to control; type: functional; settings: Severe acute respiratory syndrome coronavirus 2, B.1, Calu-3
[7] = test system: SARS-CoV-2; assay: Antiviral activity against SARS-CoV-2; type: functional, organism-based; settings: Severe acute respiratory syndrome coronavirus 2
[8] = test system: SARS-CoV-2; assay: Potency index, ratio of baicalein EC50 to test compound EC50 for antiviral activity against SARS-CoV-2 infected in human Calu-3 cells assessed as inhibition of viral replication; type: functional, Severe acute respiratory syndrome coronavirus 2
[9] = test system: SARS-CoV-2; assay: Potency index, ratio of myricetin EC50 to test compound EC50 for antiviral activity against SARS-CoV-2 infected in human Calu-3 cells assessed as inhibition of viral replication; type: functional, Severe acute respiratory syndrome coronavirus 2
[10] = test system: SARS-CoV-2; assay: Antiviral activity against SARS-CoV-2 B.1 lineage infected in human Calu-3 cells assessed as inhibition of viral replication; type: functional, organism-based; settings: Severe acute respiratory syndrome coronavirus 2, B.1, Calu-3
[11] = Cytotoxicity against African green monkey Vero E6 cells assessed as reduction in cell viability by CCK8 assay; type: toxicity, cell-based, Vero C1008; settings: chlorocebus sabaeus
[12] = test system: SARS-CoV-2; assay: Antiviral activity against SARS-CoV-2 infected in human Calu-3 cells; type: functional, organism-based; settings: Severe acute respiratory syndrome coronavirus 2, Calu-3
[13] = test system: SARS-CoV-2; assay: Antiviral activity against SARS-CoV-2 infected in human Calu-3 cells assessed as inhibition of viral replication incubated for 48 hrs by PFU assay; type: functional, organism-based; settings: Severe acute respiratory syndrome coronavirus 2, Calu-3, 48 h
[14] = test system: SARS-CoV-2; assay: Antiviral activity against SARS-CoV-2 in presence of ritonavir; type: functional, organism-based; settings: Severe acute respiratory syndrome coronavirus 2
[15] = test system: SARS-CoV-2; assay: Antiviral activity against SARS-CoV-2 in presence of lopinavir; type: functional, organism-based; settings: Severe acute respiratory syndrome coronavirus 2

## COc1ccc(/C=C2\Oc3cc(O)ccc3C2=O)cc1
[1]
  inhibition at 10 µM: 24%
[2]
  CC50 at 72 h: > 250 µM
[3]
  EC50: > 10000 nM
[4]
  viability at 72 h, 250 µM: ≥ 80%

## COc1ccc2c(c1)O/C(=C\c1ccc(O)cc1)C2=O
[5]
  selectivity ratio: > 107
[1]
  inhibition at 10 µM: 88.3%
[2]
  CC50 at 72 h: > 300 µM
[6]
  inhibition at 1 µM: 25%
[3]
  EC50: 2800 nM
[4]
  viability at 72 h, 250 µM: ≥ 80%

## COc1ccc(/C=C2\Oc3cc(O)cc(O)c3C2=O)cc1
[1]
  inhibition at 10 µM: 68.4%
[4]
  viability at 72 h, 250 µM: ≥ 80%

## O=C1/C(=C/c2ccc3c(c2)OCO3)Oc2ccccc21
[1]
  inhibition at 10 µM: 44.6%
[6]
  inhibition at 1 µM: 69.5%
[4]
  viability at 72 h, 250 µM: ≥ 80%

## COc1cc(/C=C2\Oc3ccccc3C2=O)cc(OC)c1OC
[5]
  selectivity ratio: > 43.1
[1]
  inhibition at 10 µM: 66.4%
[2]
  CC50 at 72 h: > 250 µM
[3]
  EC50: 5800 nM
[4]
  viability at 72 h, 250 µM: ≥ 80%

## COc1ccc(/C=C2\Oc3cc(OC)ccc3C2=O)cc1
[5]
  selectivity ratio: > 200
[1]
  inhibition at 10 µM: 94.8%
[2]
  CC50 at 72 h: > 300 µM
[6]
  inhibition at 1 µM: 46.5%
[3]
  EC50: 1500 nM
[4]
  viability at 72 h, 250 µM: ≥ 80%

## CCC(CC)COC(=O)[C@H](C)N[P@](=O)(OC[C@H]1O[C@@](C#N)(c2ccc3c(N)ncnn23)[C@H](O)[C@@H]1O)Oc1ccccc1
[7]
  EC50: 2500 nM

## COc1ccc(/C=C2\Oc3cc(O)ccc3C2=O)cc1O
[5]
  selectivity ratio: > 44.6
[1]
  inhibition at 10 µM: 24.4%
[2]
  CC50 at 72 h: > 250 µM
[6]
  inhibition at 1 µM: 70.4%
[3]
  EC50: 5600 nM
[4]
  viability at 72 h, 250 µM: ≥ 80%

## COc1ccc(/C=C2\Oc3cc(OC(F)F)ccc3C2=O)cc1
[5]
  selectivity ratio: > 333
[1]
  inhibition at 10 µM: 97.1%
[2]
  CC50 at 72 h: > 300 µM
[6]
  inhibition at 1 µM: 69.9%
[3]
  EC50: 900 nM
[4]
  viability at 72 h, 250 µM: ≥ 80%

## COCOc1cc(/C=C2\Oc3ccccc3C2=O)ccc1OC
[5]
  selectivity ratio: > 300
[1]
  inhibition at 10 µM: 97.6%
[2]
  CC50 at 72 h: > 300 µM
[6]
  inhibition at 1 µM: 60.3%
[3]
  EC50: 1000 nM
[4]
  viability at 72 h, 250 µM: ≥ 80%

## COCOc1ccc2c(c1OCOC)O/C(=C\c1ccc(OC)cc1)C2=O
[1]
  inhibition at 10 µM: 58.2%
[6]
  inhibition at 1 µM: < 1%
[4]
  viability at 72 h, 250 µM: ≥ 80%

## COCOc1cc(OCOC)c2c(c1)O/C(=C\c1ccc(OC)cc1)C2=O
[1]
  inhibition at 10 µM: 95.2%
[6]
  inhibition at 1 µM: < 1%
[4]
  viability at 72 h, 250 µM: ≥ 80%

## COCOc1cc(/C=C2\Oc3cc(OC)ccc3C2=O)ccc1OC
[5]
  selectivity ratio: > 435
[1]
  inhibition at 10 µM: 88.2%
[2]
  CC50 at 72 h: > 1000 µM
[6]
  inhibition at 1 µM: 34.1%
[3]
  EC50: 2300 nM
[4]
  viability at 72 h, 250 µM: ≥ 80%

## COCOc1ccc2c(c1)O/C(=C\c1ccc(OC)cc1OCOC)C2=O
[5]
  selectivity ratio: 2440
[1]
  inhibition at 10 µM: 96.2%
[2]
  CC50 at 72 h: 976 µM
[8]
  Ratio EC50: 3
[9]
  Ratio EC50: 2
[6]
  inhibition at 1 µM: 82.5%
[3]
  EC50: 350 nM
[4]
  viability at 72 h, 250 µM: ≥ 80%

## COc1ccc(/C=C2\Oc3cc(OCc4ccccc4)ccc3C2=O)cc1
[5]
  selectivity ratio: > 136
[1]
  inhibition at 10 µM: 91%
[2]
  CC50 at 72 h: > 300 µM
[6]
  inhibition at 1 µM: 36.1%
[3]
  EC50: 2200 nM
[4]
  viability at 72 h, 250 µM: ≥ 80%

## COc1ccc2c(c1)O/C(=C\c1ccccc1)C2=O
[5]
  selectivity ratio: > 2000
[1]
  inhibition at 10 µM: 99.7%
[2]
  CC50 at 72 h: > 1000 µM
[6]
  inhibition at 1 µM: 59.1%
[3]
  EC50: 490 nM
[4]
  viability at 72 h, 250 µM: ≥ 80%

## COc1ccc(/C=C2\Oc3cc4c(cc3C2=O)OCO4)cc1
[5]
  selectivity ratio: > 500
[1]
  inhibition at 10 µM: 95.8%
[2]
  CC50 at 72 h: > 1000 µM
[6]
  inhibition at 1 µM: 32.5%
[3]
  EC50: 2000 nM
[4]
  viability at 72 h, 250 µM: ≥ 80%

## COc1cccc2c1C(=O)/C(=C/c1ccccc1)O2
[1]
  inhibition at 10 µM: 90.9%
[6]
  inhibition at 1 µM: < 1%
[4]
  viability at 72 h, 250 µM: ≥ 80%

## COCOc1cc(OC)ccc1/C=C1\Oc2ccccc2C1=O
[5]
  selectivity ratio: > 30.5
[1]
  inhibition at 10 µM: 58.3%
[2]
  CC50 at 72 h: > 250 µM
[3]
  EC50: 8200 nM
[4]
  viability at 72 h, 250 µM: ≥ 80%

## COCOc1ccc2c(c1)O/C(=C\c1ccc(OC)cc1)C2=O
[5]
  selectivity ratio: > 1670
[1]
  inhibition at 10 µM: 98%
[2]
  CC50 at 72 h: > 1000 µM
[6]
  inhibition at 1 µM: 77.6%
[3]
  EC50: 580 nM
[4]
  viability at 72 h, 250 µM: ≥ 80%

## COc1ccc(/C=C2\Oc3cc(OCc4ccc(F)cc4)ccc3C2=O)cc1
[5]
  selectivity ratio: > 104
[1]
  inhibition at 10 µM: 85.2%
[2]
  CC50 at 72 h: > 300 µM
[6]
  inhibition at 1 µM: 14.5%
[3]
  EC50: 2900 nM
[4]
  viability at 72 h, 250 µM: ≥ 80%

## COc1ccc(/C=C2\Oc3c(ccc(O)c3O)C2=O)cc1
[5]
  selectivity ratio: > 65.2
[1]
  inhibition at 10 µM: 62.2%
[2]
  CC50 at 72 h: > 300 µM
[6]
  inhibition at 1 µM: 25.9%
[3]
  EC50: 4600 nM
[4]
  viability at 72 h, 250 µM: ≥ 80%

## COCOc1ccc2c(c1)O/C(=C\c1ccc(OC)c(OCOC)c1)C2=O
[5]
  selectivity ratio: 1630
[1]
  inhibition at 10 µM: 95.4%
[2]
  CC50 at 72 h: 817 µM
[6]
  inhibition at 1 µM: 77%
[3]
  EC50: 500 nM
[4]
  viability at 72 h, 250 µM: ≥ 80%

## O=C1/C(=C/c2ccc(Cl)cc2)Oc2ccccc21
[1]
  inhibition at 10 µM: 68.8%
[4]
  viability at 72 h, 250 µM: ≥ 80%

## COc1ccc(/C=C2\Oc3ccccc3C2=O)cc1 [4'-METHOXY-AURONE]
[1]
  inhibition at 10 µM: 66.9%
[6]
  inhibition at 1 µM: 29.2%
[4]
  viability at 72 h, 250 µM: ≥ 80%

## O=C1/C(=C/c2ccccc2)Oc2ccccc21 [(Z)-AURONE]
[1]
  inhibition at 10 µM: 81.2%
[6]
  inhibition at 1 µM: < 1%
[4]
  viability at 72 h, 250 µM: ≥ 80%

## O=c1cc(-c2ccc(O)cc2)oc2cc(O)cc(O)c12 [APIGENIN]
[10]
  EC50: 5100 nM

## O=c1cc(-c2ccccc2)oc2cc(O)c(O)c(O)c12 [BAICALEIN]
[11]
  CC50: > 200 µM
[12]
  EC50: 1200 nM

## O=c1c(O)c(-c2ccc(O)cc2)oc2cc(O)cc(O)c12 [KAEMPFEROL]
[10]
  EC50: 3000 nM

## COc1cc(O)c2c(=O)c(OC)c(-c3ccc(O)cc3)oc2c1 [KUMATAKENIN]
[13]
  EC50: 300 nM

## Cc1cccc(C)c1OCC(=O)N[C@@H](Cc1ccccc1)[C@@H](O)C[C@H](Cc1ccccc1)NC(=O)[C@H](C(C)C)N1CCCNC1=O [LOPINAVIR]
[14]
  EC50: 5 µM

## CC(C)C(=O)OC[C@H]1O[C@@H](n2cc/c(=N\O)[nH]c2=O)[C@H](O)[C@@H]1O [MOLNUPIRAVIR]
[7]
  EC50: 2000 nM

## O=c1c(O)c(-c2cc(O)c(O)c(O)c2)oc2cc(O)cc(O)c12 [MYRICETIN]
[10]
  EC50: 900 nM

## O=c1c(O)c(-c2ccc(O)c(O)c2)oc2cc(O)cc(O)c12 [QUERCETIN]
[10]
  EC50: 2400 nM

## COc1cc(O)c2c(=O)c(OC)c(-c3ccc(OC)c(OC)c3)oc2c1 [RETUSIN]
[13]
  EC50: 600 nM

## CC(C)c1nc(CN(C)C(=O)N[C@H](C(=O)N[C@@H](Cc2ccccc2)C[C@H](O)[C@H](Cc2ccccc2)NC(=O)OCc2cncs2)C(C)C)cs1 [RITONAVIR]
[15]
  EC50: 5 µM
